Measurements taken from patent publication US20050277645A1, “Sleep inducing compounds and methods relating thereto” (Neurocrine Biosciences, Inc., priority 2004, published 2005).

Biological target: T1, human H1 receptor (Homo sapiens, UniProt P35367)
T1 construct: expressed in transfected cells; host or cells: CHO cells (crude membranes)
Assay: Human histamine H1 receptor binding assay
Settings: competition with 1.5 nM [pyridinyl-5-3H]Pyrilamine, crude membranes of CHO cells transfected with human H1 receptor; Ki from IC50 by Cheng-Prusoff
Procedure: Compounds of the present invention may be evaluated for binding to the histamine H1 receptor by a standard binding assay. […] Non-specific binding is determined in the presence of excess (1 μM) doxepin. Bound and free ligand are separated by rapid vacuum filtration using a Packard 96-well cell harvester onto UniFilter GF/C filter plates (PerkinElmer) that has been pretreated with 1% polyethyleneimine. The filter plates are then washed with 600 μl phosphate buffered saline containing 0.01% (v/v) Triton-X100. Bound radioligand is determined by scintillation counting using a TopCount-NXT (Packard). Binding data is analyzed by nonlinear, least-squares curve fitting algorithms using GraphPad Prism (GraphPad Software, Inc. San Diego, Calif.) or ActivityBase (IDBS, Guildford, Surrey, UK).

T1 sequence (P35367 whole entry): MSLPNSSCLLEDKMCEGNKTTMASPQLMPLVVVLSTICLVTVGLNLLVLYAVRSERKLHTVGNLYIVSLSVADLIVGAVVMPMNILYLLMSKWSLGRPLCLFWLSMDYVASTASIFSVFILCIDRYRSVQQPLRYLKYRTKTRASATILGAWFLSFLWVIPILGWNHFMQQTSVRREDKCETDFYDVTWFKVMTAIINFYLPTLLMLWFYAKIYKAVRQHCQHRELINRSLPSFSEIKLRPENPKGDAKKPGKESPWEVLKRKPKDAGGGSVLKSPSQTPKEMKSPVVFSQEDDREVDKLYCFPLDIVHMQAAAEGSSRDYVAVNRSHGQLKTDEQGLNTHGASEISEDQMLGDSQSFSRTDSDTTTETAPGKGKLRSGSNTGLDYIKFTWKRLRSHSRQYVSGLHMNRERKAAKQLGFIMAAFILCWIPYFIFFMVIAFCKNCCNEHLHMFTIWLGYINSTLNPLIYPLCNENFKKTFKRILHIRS

Ki | Structure (SMILES)
≤ 250 nM | CC(CC1=C(Cc2cnccn2)c2ccccc2C1)N(C)C (stereo not shown) [18-1, dimethyl-[1-methyl-2-(3-pyrazin-2-ylmethyl-1H-inden-2-yl)-ethyl]-amine]
≤ 250 nM | Fc1ccc2c(c1)CC(CCN1CCCC1)=C2Cc1cccnn1 [19-1, 3-[5-fluoro-2-(2-pyrrolidin-1-yl-ethyl)-3H-inden-1-ylmethyl]-pyridazine]
≤ 250 nM | CC(C1=C(CCN(C)C)Cc2ccccc21)c1ncc(-c2ccccc2)o1 (stereo not shown) [9-1, dimethyl-(2-{3-[1-(5-phenyl-oxazol-2-yl)-ethyl]-1H-inden-2-yl}-ethyl)-amine]
≤ 250 nM | CC(C1=C(CCN(C)C)Cc2ccccc21)c1nnc(-c2ccccc2)s1 (stereo not shown) [14-2]
≤ 250 nM | CC(C1=NCCO1)C1=C(CCN(C)C)Cc2ccccc21 (stereo not shown) [13-1, (2-{3-[1-(4,5-dihydro-oxazol-2-yl)-ethyl]-1H-inden-2-yl}-ethyl)-dimethyl-amine]
≤ 250 nM | Cc1csc([C@H](C)C2=C(CCN(C)C)Cc3cc(Cl)ccc32)n1 [22-5]
≤ 250 nM | COc1nccnc1C(C)C1=C(CCN(C)C)Cc2cc(Cl)ccc21 (stereo not shown) [4-20]
≤ 250 nM | COc1ccc2c(c1)CC(CCN1CCC1)=C2C(C)c1cnccn1 (stereo not shown) [21-1, 2-{1-[2-(2-azetidin-1-yl-ethyl)-5-methoxy-3H-inden-1-yl]-ethyl}-pyrazine]
≤ 250 nM | CCN(C)CCC1=C(Cc2cnccn2)c2ccccc2C1 [16-1, ethyl-methyl-[2-(3-pyrazin-2-ylmethyl-1H-inden-2-yl)-ethyl]-amine]
≤ 250 nM | COc1ccc2c(c1)CC(CCN(C)C)=C2Cc1cccnn1 [4-42]
≤ 250 nM | Fc1ccc2c(c1)CC(CCN1CCOCC1)=C2Cc1cccnn1 [19-2]
≤ 250 nM | COc1nccnc1[C@@H](C)C1=C(CCN(C)C)Cc2cc(Cl)ccc21 [4-22]
≤ 250 nM | CC(CC1=C(Cc2cccnn2)c2ccccc2C1)N1CCCC1 (stereo not shown) [18-5]
≤ 250 nM | COc1ccc2c(c1)CC(CCN1CCCC1)=C2Cc1cnccn1 [21-5]
≤ 250 nM | c1ccc2c(c1)CC(CCN1CCC1)=C2Cc1cnccn1 [21-10]
≤ 250 nM | CCOCC(C)C1=C(CCN(C)C)Cc2ccccc21 (stereo not shown) [6-1, {2-[3-(2-ethoxy-1-methyl-ethyl)-1H-inden-2-yl]-ethyl}-dimethyl-amine]
≤ 250 nM | CCCN(C)CCC1=C(Cc2cnccn2)c2ccccc2C1 [16-2]
≤ 250 nM | CNCCC1=C(C(C)c2nc(C)cs2)c2ccccc2C1 (stereo not shown) [15-6]
≤ 250 nM | Cc1nnc(C(C)C2=C(CCN(C)C)Cc3ccccc32)o1 (stereo not shown) [8-1, dimethyl-(2-{3-[1-(5-methyl-[1,3,4]oxadiazol-2-yl)-ethyl]-1H-inden-2-yl}-ethyl)-amine]
≤ 250 nM | O[C@@H]1CCN(CCC2=C(Cc3cccnn3)c3ccc(F)cc3C2)C1 [19-3]
≤ 250 nM | CC(CC1=C(Cc2cnccn2)c2ccccc2C1)N1CCCC1 (stereo not shown) [18-4]
≤ 250 nM | COCC(C)C1=C(CCN(C)C)Cc2ccccc21 (stereo not shown) [6-2]
≤ 250 nM | COc1ccc2c(c1)CC(CCN1CCC1)=C2[C@@H](C)c1cnccn1 [21-2]
≤ 250 nM | CCOc1nccnc1CC1=C(CCN(C)C)Cc2ccccc21 [4-16]
≤ 250 nM | CC(C(=O)OC(C)(C)C)C1=C(CCN(C)C)Cc2ccccc21 (stereo not shown) [7-1, 2-[2-(2-dimethylamino-ethyl)-3H-inden-1-yl]-propionic acid tert-butyl ester]
≤ 250 nM | CNCCC1=C([C@@H](C)c2cnccn2)c2ccccc2C1 [15-2, methyl-{2-[3-((R)-1-pyrazin-2-yl-ethyl)-1H-inden-2-yl]-ethyl}-amine]

Ki | Structure (SMILES)
≤ 250 nM | COc1nccnc1[C@H](C)C1=C(CCN(C)C)Cc2cc(Cl)ccc21 [4-23]
≤ 250 nM | COC(=O)C(C)C1=C(CCN(C)C)Cc2ccccc21 (stereo not shown) [7-3]
≤ 250 nM | Cc1ccc2c(c1)CC(CCN(C)C)=C2Cc1cccnn1 [4-25]
≤ 250 nM | CC(C1=C(CCN(C)C)Cc2ccccc21)c1ncc(-c2ccccc2)s1 (stereo not shown) [10-1, dimethyl-(2-{3-[1-(5-phenyl-thiazol-2-yl)-ethyl]-1H-inden-2-yl}-ethyl)-amine]
≤ 250 nM | Cc1cnc(C(C)C2=C(CCN(C)C)Cc3ccccc32)s1 (stereo not shown) [10-2, dimethyl-(2-{3-[1-(5-methyl-thiazol-2-yl)-ethyl]-1H-inden-2-yl}-ethyl)-amine]
≤ 250 nM | CNCCC1=C(Cc2cnccn2)c2ccccc2C1 [15-4, methyl-[2-(3-pyrazin-2-ylmethyl-1H-inden-2-yl)-ethyl]-amine]
≤ 250 nM | CCOc1nccnc1C(C)C1=C(CCN(C)C)Cc2cc(F)ccc21 (stereo not shown) [4-38]
≤ 250 nM | c1ccc2c(c1)CC(CCN1CCCC1)=C2Cc1cnccn1 [21-7]
≤ 250 nM | c1cnnc(CC2=C(CCN3CCCC3)Cc3ccccc32)c1 [21-8]
≤ 250 nM | COc1ccc2c(c1)CC(CCN1CCOCC1)=C2Cc1cnccn1 [21-9]
≤ 250 nM | CC1CN=C(C(C)C2=C(CCN(C)C)Cc3ccccc32)O1 (stereo not shown) [12-1, dimethyl-(2-{3-[1-(5-methyl-4,5-dihydro-oxazol-2-yl)-ethyl]-1H-inden-2-yl}-ethyl)-amine]
≤ 250 nM | CC(C#N)C1=C(CCN(C)C)Cc2cc(Cl)ccc21 (stereo not shown) [23-1, 2-[5-chloro-2-(2-dimethylamino-ethyl)-3H-inden-1-yl]-propionitrile]
≤ 250 nM | Fc1ccc2c(c1)CC(CCN1CCC1)=C2Cc1cccnn1 [20-1, 3-[2-(2-azetidin-1-yl-ethyl)-5-fluoro-3H-inden-1-ylmethyl]-pyridazine]
≤ 250 nM | COc1ccc2c(c1)CC(CCN1CCCC1)=C2Cc1cccnn1 [21-6]
≤ 250 nM | CC(C1=C(CCN(C)C)Cc2ccccc21)c1nnc(-c2ccccc2)o1 (stereo not shown) [8-2]
≤ 250 nM | O[C@H]1CCN(CCC2=C(Cc3cccnn3)c3ccc(F)cc3C2)C1 [19-4]
≤ 250 nM | CC(C1=C(CCN(C)C)Cc2cc(Cl)ccc21)c1nccs1 (single isomer, unassigned) [23-2, {2-[6-chloro-3-(1-thiazol-2-yl-ethyl)-1H-inden-2-yl]-ethyl}-dimethyl-amine]
≤ 250 nM | Cc1nnc(C(C)C2=C(CCN(C)C)Cc3ccccc32)s1 (stereo not shown) [14-1, dimethyl-(2-{3-[1-(5-methyl-[1,3,4]thiadiazol-2-yl)-ethyl]-1H-inden-2-yl}-ethyl)-amine]
≤ 250 nM | CCCOc1cncc(CC2=C(CCN(C)C)Cc3ccccc32)n1 [4-17]
≤ 250 nM | Cc1cnc(C(C)C2=C(CCN(C)C)Cc3ccccc32)o1 (stereo not shown) [11-1]
≤ 250 nM | CCC(C1=C(CCN(C)C)Cc2cc(F)ccc21)c1nccnc1OC (stereo not shown) [4-39]
≤ 250 nM | CN(C)CCC1=C(C(C)(C)c2cnccn2)c2ccccc2C1 [4-12]
≤ 250 nM | COc1ccc2c(c1)C(C(C)c1nccs1)=C(CCN(C)C)C2 (single isomer, unassigned) [25-2, {2-[5-methoxy-3-(1-thiazol-2-yl-ethyl)-1H-inden-2-yl]-ethyl}-dimethyl-amine]
≤ 250 nM | CC(C1=C(CCN(C)C)Cc2ccccc21)c1ccncn1 (stereo not shown) [4-2]
≤ 250 nM | CN(CCO)CCC1=C(Cc2cnccn2)c2ccccc2C1 [16-3]
≤ 250 nM | CNCCC1=C(C(C)c2cnccn2)c2ccc(C)cc2C1 (stereo not shown) [15-5]
